Measured values taken from patent publication US8440724B2, “Inhibiting neurotransmitter reuptake” (Mayo Foundation for Medical Education and Research, priority 2008, dated 2013).
Where two headings read alike, the source gives them in different places.

Columns and labels:
[1] = target: T1, human serotonin transporter (hSERT) (Homo sapiens, UniProt P31645); test: Radioligand binding to cloned hSERT, [3H]citalopram, HEK-293 cell membranes; conditions: for Binding at hSERT compared to PRC200-SS: in words
T1 construct: expressed in transfected cells; host or cells: HEK-293, stably transfected

[2] = test system: rat 5-HT, NE and DA transport, synaptosomal preparations; test: Rat brain synaptosomal transport: rank order of potency; type: biochemical; conditions: from Ki values; S = 5HT, N = NE, D = DA
[3] = target: T2, rat norepinephrine transport, synaptosomal preparations (Rattus norvegicus, UniProt Q63380); test: Inhibition of [3H]NE reuptake in rat brain synaptosomes (occipital cortex); type: biochemical
T2 construct: from tissue; host or cells: rat occipital cortex synaptosomes (male Sprague-Dawley)
Procedure: (§1) The dissected tissues were separately homogenized in 20 volumes (cortical) or 40 volumes (striatal) of ice-cold, oxygenated HEPES buffer 0.32 M sucrose containing 11 mM glucose (pH 7.4) in a glass Potter-Elvehjem homogenizer with Teflon® pestle (8 strokes, 900 rpm). The homogenates were centrifuged at 1,000×g for 10 minutes. The resulting supernatant was decanted and further centrifuged at 20,000×g for 20 minutes at 4° C. […] The synaptosomal protein concentration was determined by using the BCA assay (Pierce Biotechnology Inc, Rockford, Ill.), according to the manufacturer's instructions. Synaptosomal protein (1.0-2.5 mg) was suspended in 1 mL oxygenated incubation buffer as defined above. Test amine compound was pre-incubated with the synaptosomal preparation for 30 minutes at 37° C. in a shaking water bath (80 oscillations/minute).

[4] = target: human norepinephrine transporter (Homo sapiens, UniProt P23975); test: Inhibition of [3H]NE transport into HEK-293 cells expressing the human transporter
[5] = target: T3, rat serotonin transporter, synaptosomal preparations (Rattus norvegicus, UniProt P31652); test: Inhibition of [3H]5-HT reuptake in rat brain synaptosomes (frontal cortex); type: biochemical
T3 construct: from tissue; host or cells: rat frontal cortex synaptosomes (male Sprague-Dawley)
Procedure: as §1

[6] = target: T4, human dopamine transporter (hDAT) (Homo sapiens, UniProt Q01959); test: Radioligand binding to cloned hDAT, [3H]WIN35428, HEK-293 cell membranes; conditions: for Binding at hDAT compared to PRC200-SS: in words
T4 construct: expressed in transfected cells; host or cells: HEK-293, stably transfected

[7] = test system: human serotonin, norepinephrine and dopamine transporters; test: Transport into cells expressing human transporters: rank order of potency, comparison with rat; type: cell-based; conditions: for Potency (rank order, transport into cells expressing human transporters): from Ki values, S = 5-HT, N = NE, D = DA; for Species selectivity: blocking transport by human vs rat serotonin and dopamine transporters: human transporters in cells vs rat synaptosomal preparations (Tables 3 and 4)
male C57BL/6J mice = test: Tail suspension test (TST) in mice; type: in vivo, mouse; conditions: for Duration of immobility in TST vs saline: 5 mg/kg IP, FIG. 10E
Procedure: When mice are suspended by their tail, there is an initial period of agitation, followed by immobility. This test identifies antidepressant compounds, which decrease the duration of immobility.
Test compounds were prepared by formulating the compounds with a pharmaceutically acceptable carrier such as saline. […] Each mouse was then subjected to the tail-suspension test (TST). Each mouse (n>3) was suspended by its tail 45 cm above the table top with the use of adhesive tape placed 1 cm from the tip of its tail. Behavior was scored every 5 seconds throughout the 6-minute test as either mobile or immobile (FIG. 10A-D) or total duration of immobility during the 6-minute test (FIGS. 10E and 10H). Mice were considered immobile only when hanging passively and completely motionless. Scores for each behavior were expressed as total counts per 6-minute session.

[8] = Geometric Mean ± SEM, HCl salts, read-out: Equilibrium Dissociation Constant (KD) for Transporter Binding, hSERT (S)
[9] = Geometric Mean ± SEM, rat brain synaptosomes, read-out: Inhibitor Constant (Ki), NE transport
[10] = Geometric Mean ± SEM, rat brain synaptosomes, read-out: Inhibitor Constant (Ki), 5HT transport
[11] = Geometric Mean ± SEM, HCl salts, read-out: Equilibrium Dissociation Constant (KD) for Transporter Binding, hDAT (D)
[12] = mice, 5 and 10 mg/kg IP, 30 minutes before testing

Chain of human norepinephrine transporter (P23975 whole entry): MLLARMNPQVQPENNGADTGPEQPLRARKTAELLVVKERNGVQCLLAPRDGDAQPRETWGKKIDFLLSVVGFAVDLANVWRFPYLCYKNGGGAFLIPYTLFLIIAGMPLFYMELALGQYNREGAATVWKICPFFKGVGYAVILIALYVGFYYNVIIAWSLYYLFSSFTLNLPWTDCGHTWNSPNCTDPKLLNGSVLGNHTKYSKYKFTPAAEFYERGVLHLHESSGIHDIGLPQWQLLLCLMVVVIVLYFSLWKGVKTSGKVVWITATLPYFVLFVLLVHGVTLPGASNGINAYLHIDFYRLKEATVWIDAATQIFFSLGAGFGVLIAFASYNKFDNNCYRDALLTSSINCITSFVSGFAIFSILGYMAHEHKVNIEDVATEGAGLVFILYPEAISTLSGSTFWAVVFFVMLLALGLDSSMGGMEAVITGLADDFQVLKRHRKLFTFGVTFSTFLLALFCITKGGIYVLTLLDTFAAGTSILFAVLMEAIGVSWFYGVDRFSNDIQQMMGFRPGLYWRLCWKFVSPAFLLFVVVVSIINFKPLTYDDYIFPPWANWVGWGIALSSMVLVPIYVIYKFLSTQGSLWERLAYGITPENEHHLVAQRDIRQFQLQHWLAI
T4 sequence (Q01959 whole entry): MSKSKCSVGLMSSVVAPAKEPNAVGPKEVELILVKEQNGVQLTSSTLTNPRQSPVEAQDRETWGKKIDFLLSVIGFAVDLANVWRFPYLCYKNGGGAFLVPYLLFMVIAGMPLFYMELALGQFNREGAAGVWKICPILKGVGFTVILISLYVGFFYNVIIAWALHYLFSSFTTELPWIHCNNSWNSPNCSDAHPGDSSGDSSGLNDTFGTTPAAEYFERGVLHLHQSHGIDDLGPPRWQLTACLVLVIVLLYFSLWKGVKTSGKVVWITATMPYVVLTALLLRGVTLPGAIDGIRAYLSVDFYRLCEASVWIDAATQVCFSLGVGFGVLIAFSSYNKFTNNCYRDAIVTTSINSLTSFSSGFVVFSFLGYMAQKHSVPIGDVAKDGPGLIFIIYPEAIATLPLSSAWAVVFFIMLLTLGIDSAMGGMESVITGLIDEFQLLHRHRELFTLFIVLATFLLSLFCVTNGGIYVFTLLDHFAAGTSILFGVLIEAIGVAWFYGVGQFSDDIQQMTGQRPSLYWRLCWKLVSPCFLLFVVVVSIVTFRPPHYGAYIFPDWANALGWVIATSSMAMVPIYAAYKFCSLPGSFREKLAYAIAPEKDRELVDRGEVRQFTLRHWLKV
T2 sequence (Q63380 1-617): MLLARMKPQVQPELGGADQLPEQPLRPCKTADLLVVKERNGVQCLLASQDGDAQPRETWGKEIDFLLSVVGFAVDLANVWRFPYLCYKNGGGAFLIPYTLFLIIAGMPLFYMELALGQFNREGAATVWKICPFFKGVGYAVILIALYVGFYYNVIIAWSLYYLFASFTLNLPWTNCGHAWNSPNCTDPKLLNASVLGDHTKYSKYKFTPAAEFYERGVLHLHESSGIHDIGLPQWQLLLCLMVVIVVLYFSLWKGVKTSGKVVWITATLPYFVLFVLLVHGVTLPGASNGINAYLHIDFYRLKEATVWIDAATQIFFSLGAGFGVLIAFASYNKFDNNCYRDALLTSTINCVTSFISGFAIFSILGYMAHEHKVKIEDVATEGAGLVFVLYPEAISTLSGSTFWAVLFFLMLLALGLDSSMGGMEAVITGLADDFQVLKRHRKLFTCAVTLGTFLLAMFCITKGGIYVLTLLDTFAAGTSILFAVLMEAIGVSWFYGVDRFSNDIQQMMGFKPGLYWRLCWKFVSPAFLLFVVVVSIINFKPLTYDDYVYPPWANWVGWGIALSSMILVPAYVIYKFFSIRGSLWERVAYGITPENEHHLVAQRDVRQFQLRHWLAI
T3 sequence (P31652 whole entry): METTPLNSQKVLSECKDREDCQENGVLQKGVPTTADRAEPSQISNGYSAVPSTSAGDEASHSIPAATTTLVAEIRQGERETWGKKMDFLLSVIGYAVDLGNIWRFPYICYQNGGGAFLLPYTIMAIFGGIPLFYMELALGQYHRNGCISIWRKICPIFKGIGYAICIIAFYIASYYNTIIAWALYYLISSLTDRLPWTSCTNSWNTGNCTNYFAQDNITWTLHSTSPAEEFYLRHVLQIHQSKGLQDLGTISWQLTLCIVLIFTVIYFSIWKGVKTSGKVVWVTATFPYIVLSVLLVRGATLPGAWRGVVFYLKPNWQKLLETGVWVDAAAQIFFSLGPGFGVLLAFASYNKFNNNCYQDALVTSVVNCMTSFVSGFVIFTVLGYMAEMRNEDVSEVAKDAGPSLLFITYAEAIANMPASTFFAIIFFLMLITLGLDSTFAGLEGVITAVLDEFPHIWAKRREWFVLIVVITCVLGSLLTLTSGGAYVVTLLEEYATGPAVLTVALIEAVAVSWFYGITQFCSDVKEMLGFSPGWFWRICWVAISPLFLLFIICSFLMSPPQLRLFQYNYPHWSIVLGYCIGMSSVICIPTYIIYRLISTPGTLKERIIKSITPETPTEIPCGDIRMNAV
T1 sequence (P31645 whole entry): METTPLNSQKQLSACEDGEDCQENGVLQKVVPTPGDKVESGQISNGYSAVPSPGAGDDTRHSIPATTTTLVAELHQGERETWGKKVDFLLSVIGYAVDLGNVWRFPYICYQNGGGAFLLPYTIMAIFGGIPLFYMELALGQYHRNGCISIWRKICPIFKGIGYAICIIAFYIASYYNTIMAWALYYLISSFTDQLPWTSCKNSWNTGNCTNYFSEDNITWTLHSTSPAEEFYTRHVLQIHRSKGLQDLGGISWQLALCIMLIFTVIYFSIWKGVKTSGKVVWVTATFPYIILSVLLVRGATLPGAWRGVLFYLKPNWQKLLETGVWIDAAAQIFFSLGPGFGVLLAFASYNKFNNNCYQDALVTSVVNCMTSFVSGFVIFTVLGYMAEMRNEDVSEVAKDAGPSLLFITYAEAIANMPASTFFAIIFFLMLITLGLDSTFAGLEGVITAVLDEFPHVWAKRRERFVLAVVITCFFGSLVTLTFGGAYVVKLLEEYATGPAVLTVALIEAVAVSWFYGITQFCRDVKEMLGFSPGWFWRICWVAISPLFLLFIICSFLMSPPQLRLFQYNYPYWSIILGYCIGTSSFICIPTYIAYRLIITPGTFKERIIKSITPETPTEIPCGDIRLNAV

| Structure (SMILES) | Kd [1, 8] | Potency (rank order, transport into rat brain synaptosomal preparations) [2] | Ki [3, 9] | Ki [4] | Ki [5, 10] | Kd [6, 11] | Potency (rank order, transport into cells expressing human transporters) [7] | Kd [1] | Binding at hSERT compared to PRC200-SS [1] | Ki [5] | Kd [6] | Binding at hDAT compared to PRC200-SS [6] | other results |
| --- | --- | --- | --- | --- | --- | --- | --- | --- | --- | --- | --- | --- | --- |
| CNC[C@@H](c1ccc2ccccc2c1)[C@H](N=[N+]=[N-])c1ccccc1 [MCJ001-N3-SR, (2R,3S)-3-azido-N-methyl-2-(naphthalen-2-yl)-3-phenylpropan-1-amine] | 380 ± 40 nM | N > S > D | 250 ± 20 nM | 1400 nM | 640 ± 50 nM | 1440 ± 70 nM | S > D > N | – | – | – | – | – | Species selectivity: blocking transport by human vs rat serotonin and dopamine transporters [7]: much more potent at blocking transport by the human serotonin and dopamine transporters |
| CNC[C@H](c1ccc2ccccc2c1)[C@@H](F)c1ccccc1 [MCJ001-F-RS, (2S,3R)-3-fluoro-N-methyl-2-(naphthalen-2-yl)-3-phenylpropan-1-amine] | – | S = N > D | – | 4.8 nM | – | – | S > N > D | 2.8 ± 0.3 nM | greater binding at hSERT | 9 ± 1.5 nM | 19 ± 2 nM | Enhanced binding to hDAT | Immobility in TST (counts per 6-minute session) vs saline (male C57BL/6J mice; mice, 1, 2.5, and 5 mg/kg IP, FIG. 10B): significantly (P<0.005) reduced immobility; Mobility in TST (counts per 6-minute session) vs saline (male C57BL/6J mice; mice, 2.5 and 5 mg/kg IP, FIG. 10B): significantly (P<0.005) increased mobility; Ki [3]: 9 ± 1 nM |
| CNC[C@H](c1ccc2ccccc2c1)[C@H](OC)c1ccccc1 [MCJ001-OMe-SS, (2S,3S)-3-methoxy-N-methyl-2-(naphthalen-2-yl)-3-phenylpropan-1-amine] | 13 ± 2 nM | S > N > D | 24 ± 2 nM | 1.2 ± 0.2 nM | 12.8 ± 0.9 nM | – | N > S > D | – | – | – | 40.6 ± 0.8 nM | – | Immobility in TST (counts per 6-minute session) vs saline (male C57BL/6J mice; mice, 15 mg/kg orally (gastric gavage), FIG. 10A): significantly (P<0.02) reduced immobility; Immobility in TST (counts per 6-minute session) vs saline (male C57BL/6J mice; mice, 5 and 10 mg/kg IP): significantly (P<0.02) reduced immobility; Mobility in TST (counts per 6-minute session) vs saline (male C57BL/6J mice; [12]): significantly (P<0.02) increased mobility |
| CNC[C@H](c1ccc2ccccc2c1)[C@@H](N=[N+]=[N-])c1ccccc1 [MCJ001-N3-RS, (2S,3R)-3-azido-N-methyl-2-(naphthalen-2-yl)-3-phenylpropan-1-amine] | 124 ± 9 nM | N > S > D | 56 ± 3 nM | 24 ± 4 nM | 88 ± 10 nM | 190 ± 20 nM | N > S > D | – | – | – | – | – | – |
| CN(C)C[C@H](c1ccc2ccccc2c1)[C@H](N)c1ccccc1 [MCJ002-NH2-SS, (2S,3S)-N1,N1-dimethyl-2-(naphthalen-2-yl)-3-phenylpropane-1,3-diamine] | 2.4 ± 0.3 nM | – | – | – | – | – | – | – | greater binding at hSERT | – | 4.2 ± 0.2 nM | several fold more potent binding at hDAT | Duration of immobility in TST vs saline (male C57BL/6J mice; mice): except MCJ002-NH2-SS and MCJ001-Dimer5-SS, significantly reduced the time that the animals were immobile; Occupancy of hDAT binding sites ([6]; when the compound occupies 95% of hSERT binding sites, calculation based on occupancy theory): 92% |
| CNC[C@H](c1ccc2ccccc2c1)[C@H](OCCCCCO[C@H](c1ccccc1)[C@H](CNC)c1ccc2ccccc2c1)c1ccccc1 [MCJ001-Dimer5-SS, (2S,2′S,3S,3′S)-3,3′-(pentane-1,5-diylbis(oxy))bis(N-methyl-2-(naphthalen-2-yl)-3-phenylpropan-1-amine)] | 140 ± 30 nM | S > N > D | 200 ± 30 nM | 720 nM | 150 ± 10 nM | 113 ± 6 nM | S > D > N | – | – | – | – | – | Duration of immobility in TST vs saline (male C57BL/6J mice; mice): except MCJ002-NH2-SS and MCJ001-Dimer5-SS, significantly reduced the time that the animals were immobile; Species selectivity: blocking transport by human vs rat serotonin and dopamine transporters [7]: much more potent at blocking transport by the human serotonin and dopamine transporters |
| CNCC(c1ccc2ccccc2c1)C(F)c1ccccc1 (racemic) [MCJ001-F-(±)-RR, (2R,3R/2S,3S)-3-fluoro-N-methyl-2-(naphthalen-2-yl)-3-phenylpropan-1-amine] | – | N > S > D | – | 2.1 ± 0.5 nM | – | – | N > S > D | 3.9 ± 0.1 nM | greater binding at hSERT | 90 ± 7 nM | 140 ± 10 nM | – | Immobility in TST (counts per 6-minute session) vs saline (male C57BL/6J mice; mice, 5 and 10 mg/kg IP): significantly (P≦0.016) reduced immobility; Mobility in TST (counts per 6-minute session) vs saline (male C57BL/6J mice; [12]): significantly (P≦0.016) increased mobility; Ki [3]: 47 ± 5 nM |
| CNC[C@@H](c1ccc2ccccc2c1)[C@H](F)c1ccccc1 [MCJ001-F-SR, (2R,3S)-3-fluoro-N-methyl-2-(naphthalen-2-yl)-3-phenylpropan-1-amine] | – | S > N > D | 110 ± 20 nM | – | – | – | – | 130 ± 20 nM | much more weakly at hNET and hSERT | 53 ± 12 nM | 36 ± 6 nM | potently binds to hDAT, in the range of that seen with PRC200-SS | Immobility in TST (counts per 6-minute session) vs saline (male C57BL/6J mice; mice, 10 mg/kg IP, FIG. 10C): significantly (P<0.033) reduced immobility; Mobility in TST (counts per 6-minute session) vs saline (male C57BL/6J mice; mice, 10 mg/kg IP, FIG. 10C): significantly (P≦0.033) increased mobility |
